For one assay, the system named is 22 month old Wistar rats. The experiment in a line: Intraperitoneal glucose tolerance test after 48 hrs subcutaneous GLP-1 infusion. The note with it: […] for 48 hrs. The class given is in vivo, rat. The protocol:
The rats were implanted with an Alzet micro-osmotic pump (Alza Corp., Palo Alto, Calif.) in the interscapular region for 48 hrs. […] Control animals received normal saline in their pumps and received their infusion for the same length of time.
Blood samples were obtained at 15, 30, 45, 60, and 90 min in order to estimate glucose and insulin levels. Blood (200 μl) was drawn into heparinized tubes containing EDTA for glucose and insulin determination.
Assays. Plasma glucose was measured by the glucose oxidase method (Egan et al., 1991). […] The amount of cellular proteins was measured using the Bradford method (Bio-Rad Richmond, Calif.) using bovine γ-globulin as standard.

For assay [1], the system named is AR42J cells. The experiment in a line: RT-PCR of insulin and glucagon mRNA in AR42J cells. Type of assay: cell-based, rat. The protocol:
Reverse-transcription polymerase chain reaction (RT-PCR). Total RNA was isolated from treated AR42J cells by the methods of Chomczynski and Sacchi (1987). The total RNA samples were pretreated with DNAse in 20 mM Tris-HCL (pH 8.4), 2 mM MgCl2 and 50 mM KCl to remove any traces of contaminating genomic DNA. RT-PCR was undertaken in a volume of 50 μl of buffer containing 50 mM KCl, 10 mM Tris-HCl, 3.5 mM MgCl2, 200 μM each dNTPs, 0.4 μM each of sense and antisense primers to rat insulin I and II (insulin sense primer=5′[…]3′; insulin antisense primer=5′[…] 3′). Amplification was undertaken for 25 cycles at denaturing temperature 94° C. for 1 min, annealing temperature 60° C. for 45 sec and an extension temperature 72° C. for 1 min. mRNA from RIN 1046-38 cells were used as a positive control. In the case of glucagon RT-PCR, the denaturing and extension temperature was similar to insulin except the annealing temperature was 65° C. for 1 min (glucagon sense primer=5′ […]3′; antisense primer=5′ […]3′). The RT-PCR products were visualized by ethidium bromide staining on 2% agarose gels.

Assay [2] concerns AR42J cells. Briefly: Amylase content and CCK response of AR42J cells after 72 h treatment. Type of assay: cell-based, rat. The protocol:
Amylase Assay. For amylase determination, cells were washed free of medium with 2 ml PBS. Incubation was then carried out in DMEM containing 15 mM HEPES, 0.2% BSA and 0.01% soybean trypsin inhibitor. CCK (1 nM) was added for 50 min at 37° C. The incubation medium was then immediately removed for amylase determination and the cells were again washed in 2 ml ice-cold PBS. Lysate buffer containing (in mM) 130 Tris-HCl, 10 CaCl2, 75 NaCl, and 0.2% Triton X-100 (pH 8.0) was added to the cells and the lysates were then collected for total amylase (Ceska et al., 1969). The released amylase was expressed as the percentage of the total amylase in the cells.

From US7056734B1, “Differentiation of non-insulin producing cells into insulin producing cells by GLP-1 or exendin-4 and uses thereof” (The United States of America as represented by the …, priority 1998, dated 2006) come the findings set out here.

In the case of `CC[C@H](C)[C@H](NC(=O)[C@H](Cc1ccccc1)NC(=O)[C@H](CCC(=O)O)NC(=O)[C@H](CCCCN)NC(=O)[C@H](C)NC(=O)[C@H](C)NC(=O)[C@H](CCC(N)=O)NC(=O)CNC(=O)[C@H](CCC(=O)O)NC(=O)[C@H](CC(C)C)NC(=O)[C@H](Cc1ccc(O)cc1)NC(=O)[C@H](CO)NC(=O)[C@H](CO)NC(=O)[C@@H](NC(=O)[C@H](CC(=O)O)NC(=O)[C@H](CO)NC(=O)[C@@H](NC(=O)[C@H](Cc1ccccc1)NC(=O)[C@@H](NC(=O)CNC(=O)[C@H](CCC(=O)O)NC(=O)[C@H](C)NC(=O)[C@@H](N)Cc1c[nH]cn1)[C@@H](C)O)[C@@H](C)O)C(C)C)C(=O)N[C@@H](C)C(=O)N[C@@H](Cc1c[nH]c2ccccc12)C(=O)N[C@@H](CC(C)C)C(=O)N[C@H](C(=O)N[C@@H](CCCCN)C(=O)NCC(=O)N[C@@H](CCCNC(=N)N)C(N)=O)C(C)C` [GLP-1], the “blood glucose during glucose tolerance test” value is 9.04 ± 0.92 mmol/L in the assay on 22 month old Wistar rats (15 min after 1 g/kg ip glucose, control 11.61±0.23) and 8.61 ± 0.39 mmol/L in the assay with 22 month old Wistar rats (30 min after 1 g/kg ip glucose, control 10.36±0.43). In addition, the “rat insulin I and II mRNA by RT-PCR” value in the assay with AR42J cells [1] (GLP-1-treated for 3 days, none in non-treated cells) was “demonstrated a 187 bp rat insulin I and II mRNA”. The “glucagon mRNA at 236 bp by RT-PCR” value with AR42J cells [1] (GLP-1-treated, 48 h) is reported as “detected”. The total amylase content in the assay with AR42J cells [2] (GLP-1 added together with dexamethasone, 72 h) was determined as 7.76 U/1. Also, the “acute amylase response to CCK (1 nM)” value with AR42J cells [2] (cells pretreated with GLP-1 for 72 h) is “decreased”.
